In US20120004246A1, “PURINYL DERIVATIVES AND THEIR USE AS POTASSIUM CHANNEL MODULATORS” (NeuroSearch A/S, priority 2007, published 2012):

Target: T1, hSK3 channels (Homo sapiens, UniProt Q9UGI6)
T1 construct: expressed in transfected cells; host or cells: HEK293
Experiment: whole-cell patch-clamp of SK3 current in HEK293 cells expressing hSK3 channels
Format: cell-based
Settings: SK3 activation
Description: The ionic current through small-conductance Ca^2+-activated K^+ channels (SK channels, subtype 3) is recorded using the whole-cell configuration of the patch-clamp technique in a classic patch-clamp set-up using HEK293 tissue culture cells expressing hSK3 channels as described in e.g. WO 2006/100212.
The SC100 value determined is defined as the Stimulating Concentration required for increasing the baseline current by 100%. The below SC100 values are an indication of the SK3 activating properties of the compounds of the invention.

SC100 (Stimulating Concentration required for increasing the baseline current by 100%) | Compound
0.04 µM | CCn1cnc2c(Nc3ccc(Cl)c(Cl)c3)nc(-n3nc(C)cc3C)nc21 [Compound 4.1, (3,4-Dichloro-phenyl)-[2-(3,5-dimethyl-pyrazol-1-yl)-9-ethyl-9H-purin-6-yl]-amine]
0.02 µM | Cc1cc(C)n(-c2nc(Nc3ccc(F)c(F)c3)c3ncn(C)c3n2)n1 [Compound 6.1, (3,4-Difluoro-phenyl)-(2-(3,5-dimethyl-pyrazol-1-yl)-9-methyl-9H-purin-6-yl)-amine]
